Key:
Experiment in all cases: Greenhouse herbicidal activity assay, post-emergence
Assay type in all cases: in vivo
[1] = tested on: Cyperus iria; conditions: Post-emergence test, rate 150 g a.i./hm^2, grade by fresh weight inhibition rate; for pest or weed control at 150 g/ha: Cyperus iria, read-out: Control efficacy grade, Cyperus iria
From the text: (§1) Post-emergence: Seeds of gramineous weeds (Echinochloa crusgalli, Echinochloa crusgalli var. zelayensis, Echinochloa phyllopogon, Eleusine indica, Digitaria sanguinalis, Leptochloa chinensis, Setaria viridis, Alopecurus japonicus Steud, Beckmannia syzigachne, Polypogon fugax, Alopecurus aequalis, Lolium multiflorum, Poa annua, Aegilops tataschii, Avena fatua, Alopecurus myosuroides, Bromus japonicus), broadleaf weeds (Eclipta prostrata, Amaranthus retroflexus, Rorippa indica, Myosoton aquaticum, Veronica didyma, Galium aparine, Solanum nigrum, Xanthium sibiricum, Conyza canadensis, Sesbania cannabina, Sagittaria trifolia), and Cyperus iria (Cyperus iria, Scirpus juncoides, Cyperus difformis, etc.) were sown in plastic pots (7 cm diameter) with nutrient soil and bottom holes. Crop seeds (including Oryza sativa subsp. indica, Oryza sativa subsp. japonica, Oryza sativa L. var. Glutinosa matsum, Triticum aestivum, Zea mays, Sorghum bicolor, Setaria italica, Glycine max, Gossypium hirsutum, Brassica napus, Arachis hypogaea) were sown in plastic pots (10 cm diameter) with nutrient soil and bottom holes. After sowing, the pots were placed in the growth chamber until the plants reached the 3-6 leaf stage for foliar spraying. Post-treatment, the materials were air-dried naturally and returned to the growth chamber. Results were assessed 14-21 days later.
(§2) • A: Fresh weight inhibition rate≥80% to 100%; • B: Fresh weight inhibition rate[…] to <80%; • C: Fresh weight inhibition rate≥40% to <60%; • D: Fresh weight inhibition rate≥20% to <40%; • E: Fresh weight inhibition rate<20%; • NT: Not tested.

[2] = tested on: Leptochloa chinensis; conditions: Post-emergence test, rate 150 g a.i./hm^2; grade by fresh weight inhibition rate
From the text: as §1, §2

[3] = tested on: Eclipta prostrata; conditions: Post-emergence test, rate 150 g a.i./hm^2, grade by fresh weight inhibition rate; for pest or weed control at 150 g/ha: Eclipta prostrata, read-out: Control efficacy grade, Eclipta prostrata
From the text: as §1, §2

[4] = tested on: Echinochloa crusgalli; conditions: Post-emergence test, rate 150 g a.i./hm^2, grade by fresh weight inhibition rate
From the text: as §1, §2

Row | Compound | Control efficacy grade, Cyperus iria [1] | Control efficacy grade, Leptochloa chinensis [2] | Control efficacy grade, Eclipta prostrata [3] | also measured
1 | Cc1nnc(NC(=O)c2ccc(S(C)(=O)=O)c(SCc3ccccc3)c2Cl)o1 [Compound 3-67] | A (Fresh weight inhibition rate≥80% to 100%) |  |  | 
2 | CCCCS(=O)(=O)c1c(S(C)(=O)=O)ccc(C(=O)Nc2nnco2)c1Cl [Compound 3-281] | A (Fresh weight inhibition rate≥80% to 100%) | A (Fresh weight inhibition rate≥80% to 100%) | A (Fresh weight inhibition rate≥80% to 100%) | 
3 | Cc1nnc(NC(=O)c2ccc(S(C)(=O)=O)c([S+]([O-])CCC#N)c2Cl)o1 (racemic) [Compound 3-198] | A (Fresh weight inhibition rate≥80% to 100%) | A (Fresh weight inhibition rate≥80% to 100%) | A (Fresh weight inhibition rate≥80% to 100%) | 
4 | Cc1nonc1NC(=O)c1ccc(S(C)(=O)=O)c(SC(C)C)c1Cl [Compound 4-6] |  | A (Fresh weight inhibition rate≥80% to 100%) |  | 
5 | CCCCS(=O)(=O)c1c(S(C)(=O)=O)ccc(C(=O)Nc2nnc(CC)o2)c1Cl [Compound 3-397] | A (Fresh weight inhibition rate≥80% to 100%) |  | A (Fresh weight inhibition rate≥80% to 100%) | 
6 | Cc1nnc(NC(=O)c2ccc(S(C)(=O)=O)c([S+]([O-])CC(F)(F)C(F)(F)F)c2Cl)o1 (racemic) [Compound 3-173] |  | A (Fresh weight inhibition rate≥80% to 100%) |  | 
7 | CCCS(=O)(=O)c1c(S(C)(=O)=O)ccc(C(=O)Nc2nonc2C)c1Cl [Compound 4-5, 2-chloro-N-(4-methyl-1,2,5-oxadiazol-3-yl)-4-(methylsulfonyl)-3-(propylsulfonyl)benzamide] |  |  |  | pest or weed control at 150 g/ha [1]: 80 to 100%; pest or weed control at 150 g/ha [3]: 80 to 100%
8 | CC(C)c1nnc(NC(=O)c2ccc(S(C)(=O)=O)c([S+]([O-])C(C)C)c2Cl)o1 (racemic) [Compound 3-505] | A (Fresh weight inhibition rate≥80% to 100%) | A (Fresh weight inhibition rate≥80% to 100%) | A (Fresh weight inhibition rate≥80% to 100%) | 
9 | C=CCSc1c(S(C)(=O)=O)ccc(C(=O)Nc2nnc(C(C)C)o2)c1Cl [Compound 3-570] | A (Fresh weight inhibition rate≥80% to 100%) | B (Fresh weight inhibition rate≥260% to <80%) | A (Fresh weight inhibition rate≥80% to 100%) | 
10 | CCc1nnc(N(C)C(=O)c2ccc(S(C)(=O)=O)c([S+]([O-])C3CC3)c2Cl)o1 (racemic) [Compound 3-813] | B (Fresh weight inhibition rate≥260% to <80%) | B (Fresh weight inhibition rate≥260% to <80%) | A (Fresh weight inhibition rate≥80% to 100%) | 
11 | CCCSc1c(S(C)(=O)=O)ccc(C(=O)N(C)c2nnc(C)o2)c1Cl [Compound 3-786, 2-chloro-N-methyl-N-(5-methyl-1,3,4-oxadiazol-2-yl)-4-(methylsulfonyl)-3-(propylthio)benzamide] |  |  |  | pest or weed control at 150 g/ha ([4]; Echinochloa crus-galli, read-out: Control efficacy grade, Echinochloa crusgalli): 80 to 260%
12 | CCCCSc1c(S(C)(=O)=O)ccc(C(=O)Nc2nnc(CC)o2)c1Cl [Compound 3-393] | A (Fresh weight inhibition rate≥80% to 100%) | B (Fresh weight inhibition rate≥260% to <80%) |  | 
13 | CCC(C)Sc1c(S(C)(=O)=O)ccc(C(=O)Nc2nonc2C)c1Cl (racemic) [Compound 4-16] | A (Fresh weight inhibition rate≥80% to 100%) |  |  | 
14 | CCC(C)[S+]([O-])c1c(S(C)(=O)=O)ccc(C(=O)Nc2nonc2C)c1Cl (mixture of isomers) [Compound 4-19] | A (Fresh weight inhibition rate≥80% to 100%) | A (Fresh weight inhibition rate≥80% to 100%) | A (Fresh weight inhibition rate≥80% to 100%) | 
15 | CCc1nnc(NC(=O)c2ccc(S(C)(=O)=O)c(S(=O)(=O)CC(C)C)c2Cl)o1 [Compound 3-413] | A (Fresh weight inhibition rate≥80% to 100%) | A (Fresh weight inhibition rate≥80% to 100%) | A (Fresh weight inhibition rate≥80% to 100%) | 
16 | Cc1nonc1NC(=O)c1ccc(S(C)(=O)=O)c(SCC2CC2)c1Cl [Compound 4-32, 2-chloro-3-((cyclopropylmethyl)thio)-N-(4-meth 1-1,2,5-oxadiazol-3-yl)-4-(methylsulfonyl)benzamide] |  |  |  | pest or weed control at 150 g/ha [1]: 80 to 100%

Row | Compound | Control efficacy grade, Cyperus iria [1] | Control efficacy grade, Leptochloa chinensis [2] | Control efficacy grade, Eclipta prostrata [3] | also measured
17 | CCCC[S+]([O-])c1c(S(C)(=O)=O)ccc(C(=O)N(C)c2nnc(C)o2)c1Cl (racemic) [Compound 3-815] |  |  |  | Control efficacy grade, Echinochloa crusgalli [4]: B (Fresh weight inhibition rate≥260% to <80%)
18 | C=CC[S+]([O-])c1c(S(C)(=O)=O)ccc(C(=O)Nc2nnc(C(C)C)o2)c1Cl (racemic) [Compound 3-571] | A (Fresh weight inhibition rate≥80% to 100%) |  | A (Fresh weight inhibition rate≥80% to 100%) | 
19 | CS(=O)(=O)c1ccc(C(=O)Nc2nnco2)c(Cl)c1S(=O)(=O)CCCl [Compound 3-382] |  | A (Fresh weight inhibition rate≥80% to 100%) |  | 
20 | CCC[S+]([O-])c1c(S(C)(=O)=O)ccc(C(=O)N(C)c2ncnn2C)c1Cl (racemic) [Compound 2-78] |  |  |  | Control efficacy grade, Echinochloa crusgalli [4]: A (Fresh weight inhibition rate≥80% to 100%)
21 | CC(C)CS(=O)(=O)c1c(S(C)(=O)=O)ccc(C(=O)Nc2nnco2)c1Cl [Compound 3-297] | A (Fresh weight inhibition rate≥80% to 100%) | B (Fresh weight inhibition rate≥260% to <80%) | A (Fresh weight inhibition rate≥80% to 100%) | 
22 | CC(C)c1nnc(N(C)C(=O)c2ccc(S(C)(=O)=O)c([S+]([O-])C(C)C)c2Cl)o1 (racemic) [Compound 3-808] |  |  |  | Control efficacy grade, Echinochloa crusgalli [4]: B (Fresh weight inhibition rate≥260% to <80%)
23 | CCC(C)Sc1c(S(C)(=O)=O)ccc(C(=O)Nc2ncnn2C)c1Cl (racemic) [Compound 2-16] | A (Fresh weight inhibition rate≥80% to 100%) | A (Fresh weight inhibition rate≥80% to 100%) | A (Fresh weight inhibition rate≥80% to 100%) | 
24 | CCC[S+]([O-])c1c(S(C)(=O)=O)ccc(C(=O)N(C)c2nonc2C)c1Cl (stereo not drawn) [Compound 4-272, 2-chloro-N-methyl-N-(4-methyl-1,2,5-oxadiazol-3-yl)-4-(methylsulfonyl)-3-(propylsulfinyl)benzamide] |  |  |  | pest or weed control at 150 g/ha [1]: 80 to 100%; pest or weed control at 150 g/ha [3]: 80 to 100%
25 | Cn1ncnc1NC(=O)c1ccc(S(C)(=O)=O)c(SC2CCCC2)c1Cl [Compound 2-42] | A (Fresh weight inhibition rate≥80% to 100%) | A (Fresh weight inhibition rate≥80% to 100%) | A (Fresh weight inhibition rate≥80% to 100%) | 
26 | Cc1nonc1NC(=O)c1ccc(S(C)(=O)=O)c(S(=O)(=O)CC2CC2)c1Cl [Compound 4-36, 2-chloro-3-((cyclopropylmethyl)sulfonyl)-N-(4-methyl-1,2,5-oxadiazol-3-yl)-4-(methylsulfonyl)benzamide] |  |  |  | pest or weed control at 150 g/ha [1]: 80 to 100%
27 | Cc1nnc(NC(=O)c2ccc(S(C)(=O)=O)c(SC3CCCCC3)c2Cl)o1 [Compound 3-92] | A (Fresh weight inhibition rate≥80% to 100%) |  |  | 
28 | CCc1nnc(NC(=O)c2ccc(S(C)(=O)=O)c(S(=O)(=O)CCCl)c2Cl)o1 [Compound 3-498] |  | A (Fresh weight inhibition rate≥80% to 100%) |  | 
29 | C#CC[S+]([O-])c1c(S(C)(=O)=O)ccc(C(=O)Nc2nnc(C)o2)c1Cl (racemic) [Compound 3-148] |  | A (Fresh weight inhibition rate≥80% to 100%) |  | 
30 | CCCS(=O)(=O)c1c(S(C)(=O)=O)ccc(C(=O)N(C)c2nnnn2C)c1Cl [Compound 1-101] |  | B (Fresh weight inhibition rate≥260% to <80%) | A (Fresh weight inhibition rate≥80% to 100%) | 
31 | CCCSc1c(S(C)(=O)=O)ccc(C(=O)Nc2nnc(C(C)C)o2)c1Cl [Compound 3-499, 2-chloro-N-(5-isopropyl-1,3,4-oxadiazol-2-yl)-4-(methylsulfonyl)-3-(propylthio)benzamide] |  |  |  | pest or weed control at 150 g/ha [1]: 80 to 100%
32 | CCC(C)[S+]([O-])c1c(S(C)(=O)=O)ccc(C(=O)Nc2nnc(C(C)C)o2)c1Cl (mixture of isomers) [Compound 3-517] | B (Fresh weight inhibition rate≥260% to <80%) | A (Fresh weight inhibition rate≥80% to 100%) | A (Fresh weight inhibition rate≥80% to 100%) | 

— patent US20250223268A1, “4-Methylsulfonylbenzamide Compound, Preparation Method, Herbicidal Composition And Use” (Jiangsu Flag Chemical Industry Co., Ltd., priority 2022, published 2025)
